Source: patent US10378034B2, “Use of a N-acetylneuraminate lyase derived from the bacterium Aliivibrio salmonicida in the production of neuraminic acid and derivatives thereof” (Universitetet i Tromsø-Norges Arktiske Universitet, priority 2014, dated 2019)

Columns and labels:
[1] = test system: AsNAL; test: Cleavage of Neu5Ac, Neu5Gc and KDN by AsNAL (TBA assay); format: biochemical, Aliivibrio salmonicida; conditions: 5 mM substrate, 6.6 μg AsNAL, HEPES pH 8.0, 1 h room temperature
Procedure: The cleavage reaction of AsNAL contained 6.6 μg of AsNAL, 5 mM Neu5Gc or KDN and 124 mM HEPES buffer pH 8.0. For blank (H2O) and positive control the same components of the reactions were used, but the amount of enzyme was replaced by assay buffer. All reactions were filled up to a total volume of 50 μL with dH2O. The assay was performed in triplicate. After 1 h incubation at room temperature, the enzyme reaction was stopped by adding 2 μL concentrated H2SO4. The thiobarbituric acid (TBA) assay procedure was followed to determine the amount cleaved.

[2] = target: Aliivibrio salmonicida LFI1238 N-acetylneuraminate lyase (AsNAL), wild type, SEQ ID NO: 1 (Aliivibrio salmonicida, UniProt B6EI04); test: LDH-coupled continuous assay, enzyme kinetics for the cleavage reaction of Neu5Ac (AsNAL); format: biochemical; conditions: Neu5Ac 1-90 mM, 50 mM Tris-HCl pH 8.5, 37° C.
Procedure: (§1) Further, the enzyme kinetics for the cleavage reactions were studied using a lactate dehydrogenase (LDH)-coupled continuous assay (Comb and Roseman, 1960; Wang and Lee, 2006). The incubation mixtures contained variable amounts (1, 5, 15, 30, 45, 60, 75 and 90 mM) of Neu5Ac, 50 mM Tris-HCl, pH 8.5, 0.15 mM NADH (Sigma), 4U LDH (Sigma) and 0.315 μg of NAL in final volumes of 200 μl. Components, except the enzyme, were mixed and incubated at 37° C. for 5 min before the reactions were started by adding the specific enzyme. The measurements were done in triplicates. The decrease in absorbance at 340 nm corresponding to the oxidation of NADH by LDH in presence of released pyruvate was measured spectrophotometrically using a Spectramax M2e Microplate reader. Initial velocities were calculated using the SoftMax Pro software (Molecular Devices) and subsequently fitted to the Michaelis-Menten equation using the program GraphPad Prism 5 (GraphPad Software Inc.). The kcat values were calculated using the formula Vmax/[Enzyme]. The relationship between absorbance and substrate concentration was calculated from a standard-curve obtained by measuring the maximum absorbance from various substrate concentrations. The relationship is given by the formula: y=0.0031x+0.0052, where x is the pyruvate concentration. By using this formula, values of Vmax were converted from mOD/min to μM/min. Enzyme concentrations were converted from mg/ml to molar using the calculated molecular mass of 32257.9 g/mol (monomeric protein).
(§2) The AsNAL Michaelis constant (KM) is somewhat higher than the KM obtained for EcNAL. However, the turnover number, kcat, is strikingly higher than for EcNAL.

[3] = target: T1, E. coli N-acetylneuraminate lyase (EcNAL), commercially available (Sigma) (Escherichia coli, UniProt P0A6L4); test: LDH-coupled continuous assay, enzyme kinetics for the cleavage reaction of Neu5Ac (EcNAL); format: biochemical; conditions: Neu5Ac 1-90 mM, 50 mM Tris-HCl pH 8.5, 37° C.
T1 sequence (P0A6L4 1-297): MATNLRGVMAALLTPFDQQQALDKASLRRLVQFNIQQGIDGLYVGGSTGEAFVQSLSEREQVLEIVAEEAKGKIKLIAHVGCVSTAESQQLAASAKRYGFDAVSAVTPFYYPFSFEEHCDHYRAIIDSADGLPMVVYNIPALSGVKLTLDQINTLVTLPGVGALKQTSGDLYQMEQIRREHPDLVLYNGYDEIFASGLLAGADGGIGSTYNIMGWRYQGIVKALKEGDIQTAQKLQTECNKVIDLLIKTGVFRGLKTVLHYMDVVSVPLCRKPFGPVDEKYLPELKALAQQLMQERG
Procedure: as §1, with “The relationship is given by the formula: y=0.0031x+0.0052, where x is the pyruvate concentration. By using this formula, values of Vmax were converted from mOD/min to μM/min.” left out, “protein). […]” for “protein).”

[4] = test system: CC(=O)N[C@H]1[C@H]([C@H](O)[C@H](O)CO)OC(O)(C(=O)O)C[C@@H]1O; test: LDH-coupled continuous assay, enzyme kinetics for the cleavage reaction of Neu5Ac (AsNAL); format: biochemical, Aliivibrio salmonicida; conditions: other: cleavage reaction, Neu5Ac 1-90 mM, 50 mM Tris-HCl pH 8.5, 37° C.
Procedure: as §1, §2

[5] = test system: AsNAL; test: Production of Neu5,7Ac2/Neu5,8Ac2/Neu5,9Ac2 and legionaminic acid by AsNAL (DMB-HPLC-MS); format: biochemical, Aliivibrio salmonicida; conditions: for RT 3.29 (Area), legionaminic acid / 468.1613@3.56 Area (Neu5,7Ac2) / 468.1613@4.05 Area (Neu5,8Ac2) / 468.1613@4.4 Area (Neu5,9Ac2): 15 mM substrate, 15 mM pyruvate, 28 μg AsNAL, HEPES pH 8.0
Procedure: 15 mM of 4-O-acetyl-2-N-acetylmannosamine (4-OAc-ManNAc) or 2,4-diacetamino-2,4,6-trideoxymannose, 15 mM of pyruvate, 28 μg of enzyme (AsNAL), 124 mM HEPES buffer, pH 8.0 and dH2O were mixed in a tube to a total volume of 200 μl. Aliquots were sampled after 1.0, 1.5 and 4.0 h for production of di-acetylated Neus. For production of Legionaminic acid aliquots were sampled after 1.0 and 3.0 h. Reactions were terminated by addition of 2 μl concentrated H2SO4. Samples were passed over Amicon Ultra spin-columns with a 10000 molecular weight cut-off (Millipore) to remove high molecular weight compounds. The low molecular weight fractions were then used in DMB-HPLC coupled to mass spectrometric analyses. Derivatization of samples with DMB were performed according to protocol given by the supplier (Sialic Acid Fluorescence Labeling Kit, Takara Inc.). Reactions were carried out for 2.5 hours at 50° C. in the dark. A reference panel with a mixture of the Sias; Neu5Gc, Neu5Ac, Neu5,7Ac2, Neu5Gc9Ac, Neu5,9Ac2 and Neu5, (7/8)9Ac3 (ProZyme Inc.) were also subjected to derivatization with DMB. DMB-labeled sialic acids were separated by HPLC using Accela HPLC (Thermo Scientific) on a LTQ Orbitrap XL Fourier Transform Mass Spectrometer (FTMS) with an Electrospray ion source (Thermo Scientific) using a positive ion profile mode fullscan (+pESI). The column used was a Hypersil Gold 50×2.1 mm, 1.9 μm reversed-phase C18 column (Thermo scientific).). Elution was achieved using water with 0.1% formic acid (A) and acetonitrile with 0.1% formic acid (B) at a flow rate of 400 μl/min.
The analytical conditions were set to 300° C. for capillary temperature, 4.5 kV spray voltage, m/z 350-550 scan range and 35% collision energy. The MS/MS was targeted on the masses m/z 426.15, m/z 468.16 and m/z 451.18 using Ion trap MS (ITMS)+cESI with full MS2 in scan range m/z 125-480, corresponding to the DMB derivates DMB-Neu5Ac, DMB-di-acetylated Neu and DMB-Leg.

[6] = Integrated reaction: Neu5Ac production from GlcNAc and pyruvate at alkaline pH (TBA assay); format: biochemical
Procedure: For ManNAc reactions, the buffer used was HEPES, pH 8.0. […] Experiments were performed in triplicate. For ManNAc experiments, aliquots were sampled after 0.5, 1.0, 1.5, 2.5 and 4.0 h. For GlcNAc experiments, aliquots were sampled after 12, 24, 36, 48 and 72 h. Reactions were terminated by addition of 2 μl concentrated H2SO4. The time needed for N-acetylneuraminic acid (Neu5Ac) production to get started under these conditions was known to take longer time based on initial test experiments. The thiobarbituric acid (TBA) assay procedure was followed to determine the amount of Neu5Ac produced. The activity was corrected for a blank value. The blank contained all the reaction components except for enzyme.
Initially, also glycine buffer was tested at pH 10.5 and pH 11.0 for the reactions with GlcNAc. GlcNAc will chemically epimerize to ManNAc at pH values above 9.0, which the enzyme will use as substrate for the production of Neu5Ac. The epimerization is pH dependent and will increase with increasing pH. Production of Neu5Ac was higher in CAPS buffer compared to glycine buffer, so this was chosen for further experiments.

With `O=C(O)C(=O)C[C@H](O)[C@@H](O)[C@@H](O)[C@H](O)[C@H](O)CO` [KDN, 2-keto-3-deoxy-D-glycero-D-galacto-nononic acid] the “% cleaved” value [1] was 50.0%, the “Cleaved (OD)” value [1] was 2.658 ± 0.130 and the “OD sample-blank (measures uncleaved substrate)” value (“OD sample-blank” below) [1] was 2.662 ± 0.130.

In the case of `O=C(CO)N[C@H]1[C@H]([C@H](O)[C@H](O)CO)OC(O)(C(=O)O)C[C@@H]1O` (stereo partly shown) [Neu5Gc, N-glycolylneuraminic acid], the “% cleaved” value [1] is reported as 73.9%, the “Cleaved (OD)” value [1] is reported as 4.018 ± 0.076 and the “OD sample-blank” value [1] is reported as 1.422 ± 0.076.

With `CC(=O)N[C@H]1[C@H]([C@H](O)[C@H](O)CO)OC(O)(C(=O)O)C[C@@H]1O` (stereo partly shown) [Neu5Ac, N-acetylneuraminic acid] the Vmax [2] was 315.5 ± 18.5, the Vmax [3] was 208.9 ± 16.7 and the “% cleaved” value [1] was 82.6%. The “Cleaved (OD)” value [1] was 4.984 ± 0.016 and the “OD sample-blank” value [1] was 1.048 ± 0.016.

In the case of “Aliivibrio salmonicida LFI1238 N-acetylneuraminate lyase (AsNAL), wild type, SEQ ID NO: 1 (Aliivibrio salmonicida LFI1238)”, the Km [4] is reported as 53.88 ± 6.55 mM, the kcat [4] is reported as 19.1 s⁻¹ and the kcat/Km [4] is reported as 354 M⁻¹ s⁻¹.

With `CC(=O)N[C@@H]([C@H](O)[C@@H](C=O)NC(C)=O)[C@@H](C)O` [2,4-diacetamino-2,4,6-trideoxymannose] the “RT 3.29 (Area), legionaminic acid” value ([5]; 1 h) was 902252 and the “RT 3.29 (Area), legionaminic acid” value ([5]; 3 h) was 1663378.

In the case of `CC(=O)N[C@@H]1C(O)O[C@H](CO)[C@@H](OC(C)=O)[C@@H]1O` (stereo partly shown) [4OAc-ManNAc, 4-O-acetyl-2-N-acetylmannosamine], the “468.1613@3.56 Area (Neu5,7Ac2)” value ([5]; 1 hour) is reported as 3258981, the “468.1613@4.05 Area (Neu5,8Ac2)” value ([5]; 1 hour) is reported as 4611697 and the “468.1613@4.4 Area (Neu5,9Ac2)” value ([5]; 1 hour) is reported as 20834893. For the same molecule, the “468.1613@3.56 Area (Neu5,7Ac2)” value ([5]; 1.5 hours) was 4048804, the “468.1613@4.05 Area (Neu5,8Ac2)” value ([5]; 1.5 hours) was 5467510 and the “468.1613@4.4 Area (Neu5,9Ac2)” value ([5]; 1.5 hours) was 23706892. For the same molecule, the “468.1613@3.56 Area (Neu5,7Ac2)” value ([5]; 4 hours) was 4484920, the “468.1613@4.05 Area (Neu5,8Ac2)” value ([5]; 4 hours) was 6019425 and the “468.1613@4.4 Area (Neu5,9Ac2)” value ([5]; 4 hours) was 26500427. For the same molecule, the “production of Neu5,9Ac2, Neu5,7Ac2 and Neu5,8Ac2 relative to ManNAc as a substrate” value ([5]; same conditions, pH 8.0, asNAL) was 30-40%.

B1: EcNAL: commercially available N-acetylneuraminate lyase from E. coli (Sigma) (protein, UniProt P0A6L4 2-297, looked up)
N-acetylneuraminate lyase: ATNLRGVMAALLTPFDQQQALDKASLRRLVQFNIQQGIDGLYVGGSTGEAFVQSLSEREQVLEIVAEEAKGKIKLIAHVGCVSTAESQQLAASAKRYGFDAVSAVTPFYYPFSFEEHCDHYRAIIDSADGLPMVVYNIPALSGVKLTLDQINTLVTLPGVGALKQTSGDLYQMEQIRREHPDLVLYNGYDEIFASGLLAGADGGIGSTYNIMGWRYQGIVKALKEGDIQTAQKLQTECNKVIDLLIKTGVFRGLKTVLHYMDVVSVPLCRKPFGPVDEKYLPELKALAQQLMQERG
In the case of B1, the “production of Neu5Ac (in words)” value ([6]; pyruvate and GlcNAc 4:1, CAPS pH 11.0) is reported as “low” and the “production of Neu5Ac (in words)” value ([6]; pyruvate and GlcNAc, CAPS pH 11.5) is reported as “no production was observed”.
